# US12295937B2, “Psychoactive medicines and their use for treating psychiatric and neurological conditions and disorders” (Transcend Therapeutics, Inc., priority 2021, dated 2025)
# Key:
# DAT [1] = biological target: T1, DAT (Rattus norvegicus, UniProt P23977); assay: [3H]DA release from rat brain synaptosomes; assay type: biochemical; parameters: from tissue; synaptosomes for uptake and release; conditions: rat brain synaptosomes; read-out: Neurotransmitter release: EC50
# Experimental: Test compounds and synaptosomes were prepared as described for uptake inhibition assays. Synaptosomes treated with [^3H]5-HT, [^3H]DA or [^3H]NE were loaded onto filter chambers containing GF/C filters and placed in a superfusion system. Oxygenated Krebs buffer was perfused through the chambers at a rate of 1.5 mL/minute at 35° C. using either an 8-channel or a 12-channel peristaltic pump. Trapped air bubbles were removed from the filters prior to collecting fractions to ensure an even flow over the synaptosomal bed. After a superfusion period of 45 minutes, 2 basal fractions were collected followed by 6 fractions following the addition of the test drug. […] Scintillation cocktail was added, and the filters counted to determine residual radioactivity. Drug-evoked release of neurotransmitter was calculated by subtracting the average of the two basal fractions (collected prior to the drug addition), from the four fractions collected in the presence of drug. The drug-evoked release was then expressed as a percentage of the basal release. Potassium-evoked release was calculated by subtracting the average of two fractions collected prior to the addition of high KCl buffer from that in the two fractions following addition of high KCl buffer. Potassium-stimulated release was calculated as a percentage of basal release. […]
# DAT [2] = biological target: T1, DAT; assay: [3H]DA uptake inhibition in rat brain synaptosomes; conditions: read-out: Reuptake inhibition: IC50; rat brain synaptosomes
# [3] = Reserpine-induced fibromyalgia model, vonFrey test; assay type: in vivo, rat; conditions: 15 mg/kg IP, 30 min before vonFrey test, day 4
# Experimental: In this Example, male Sprague Dawley rats are tested in a behavioral model of FMA based on the protocol from Nakagura et al. (2009) Pain 146:26. This model uses three daily doses of reserpine (1 mg/kg, SC) or 0.5% acetic acid vehicle to reduce pain thresholds (i.e., increase pain perception) in the Von Frey Test (vFT, procedure outlined below).
# Von Frey Test (vFT) procedure: Increasing pain thresholds in this test are consistent with a reduction in pain perception. Prior to the start of dosing, rats are tested for their baseline mechanical pain threshold. For von Frey measurements, animals are placed into wire bottom cubicles with opaque Plexiglas walls, allowing access to the underside of their paws. Animals are habituated to this environment for at least 30 minutes before the start of the von Frey filament application. Static allodynia is measured using Semmes-Weinstein von Frey filaments (Stoelting, Wood Dale, IL). Mechanical allodynia is tested by touching the plantar surface of the animals' left and right hind paws with von Frey filaments which deliver a calibrated amount of force. Each von Frey filament is presented perpendicularly to the plantar surface for approximately 6 seconds of constant application in either ascending or descending strength in a modified up-and-down method (Chaplan et al. (1994) J Neurosci. Meth. 53:55). Stimulation is presented at intervals of several seconds, allowing for apparent resolution of any behavioral responses to previous stimuli. A positive response is noted if the paw is sharply withdrawn. Flinching immediately upon removal of the hair is also considered a positive response. Ambulation is considered an ambiguous response, and, in such cases, the stimulus is repeated.
# VonFrey measurements: Animals were placed into wire bottom cubicles with opaque Plexiglas walls, allowing access to the underside of their paws. […] Static allodynia was measured using Semmes-Weinstein von Frey filaments (Stoelting, Wood Dale, IL). […] The average hindpaw thresholds were determined 60-min post-injection. […]
# T1 sequence (P23977 whole entry, the tested form may be a part): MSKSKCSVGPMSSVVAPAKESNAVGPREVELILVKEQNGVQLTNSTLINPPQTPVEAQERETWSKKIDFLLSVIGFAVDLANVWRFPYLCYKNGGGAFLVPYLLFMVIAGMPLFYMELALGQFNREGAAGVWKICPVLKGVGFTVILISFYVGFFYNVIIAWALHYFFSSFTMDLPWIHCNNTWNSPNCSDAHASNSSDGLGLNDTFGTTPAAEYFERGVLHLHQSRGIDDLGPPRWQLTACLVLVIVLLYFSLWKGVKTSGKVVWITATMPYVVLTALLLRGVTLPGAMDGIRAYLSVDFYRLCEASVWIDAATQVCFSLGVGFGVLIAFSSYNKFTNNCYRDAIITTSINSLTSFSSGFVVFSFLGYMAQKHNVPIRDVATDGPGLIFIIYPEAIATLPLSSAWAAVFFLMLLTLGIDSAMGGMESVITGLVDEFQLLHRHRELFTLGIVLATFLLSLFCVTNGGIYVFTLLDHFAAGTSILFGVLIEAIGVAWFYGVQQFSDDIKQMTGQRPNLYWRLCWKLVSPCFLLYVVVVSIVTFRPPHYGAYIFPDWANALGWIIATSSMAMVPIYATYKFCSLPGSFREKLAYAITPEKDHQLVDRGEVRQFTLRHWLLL
compound,measurement,setting,value
"CNC(C)C(=O)c1ccc2c(c1)OCO2 (stereo not drawn) [Methylone, 3,4-methylenedioxy-N-methylcathinone]",EC50,DAT [1],4.79 µM
same,IC50,DAT [2],2.3 µM
same,Paw withdrawal thresholds,[3],significantly increased paw withdrawal thresholds
